# According to patent US8653087B2, “Pyrido [5, 4-D] pyrimidines as cell proliferation inhibitors” (Boehringer Ingelheim International GmbH, priority 2008, dated 2014):
# Target: B-Raf (V600E)-kinase (Homo sapiens (Human), UniProt P15056, V600E)
# Assay: Kinase test B-RAF (V600E)
# Format: biochemical
# Settings: B-RAF (V600E) kinase test, 250 μM ATP
# Experimental: Kinase Test B-RAF (V600E)
# In a dilution series 10 μL of test substance solution are placed in a multiwell plate. The dilution series is selected so that generally a range of concentrations of 2 μM to 0.119 nM or 0.017 nM is covered. If necessary the initial concentration of 2 μM is changed to 50 μM, 10 μM or 0.4 μM or 0.2857 μM and further dilution is carried out accordingly. The final concentration of DMSO is 5%. 10 μL of the B-Raf (V600E)-kinase solution are pipetted in (containing 0.5 ng B-Raf (V600E)-kinase in 20 mM Tris-HCl pH 7.5, 0.1 mM EDTA, 0.1 mM EGTA, 0.286 mM sodium orthovanadate, 10% glycerol, 1 mg/mL bovine serum albumin, 1 mM dithiothreitol) and the mixture is incubated for 24 h at RT under with shaking. The kinase reaction is started by the addition of 20 μL ATP solution [final concentration: 250 μM ATP, 30 mM Tris-HCl pH 7.5, 0.02% Brij, 0.2 mM sodium orthovanadate, 10 mM magnesium acetate, 0.1 mM EGTA, phosphatase cocktail (Sigma, # P2850, dilution recommended by the manufacturer), 0.1 mM EGTA] and 10 μL MEK1 solution [containing 50 ng biotinylated MEK1 (prepared from purified MEK1 according to standard procedure, e.g. with EZ-Link Sulpho-NHS-LC-Biotin reagent, Pierce, #21335) and carried out for 60 min at RT with constant shaking. The reaction is stopped by the addition of 12 μL of a 100 mM EDTA solution and incubation is continued for a further 5 min. 55 μL of the reaction solution are transferred into a streptavidin-coated plate (e.g. Streptawell HighBond, Roche, #11989685001) and shaken gently for 1 h at RT, in order to bind biotinylated MEK1 to the plate. After elimination of the liquid the plate is washed five times with 200 μL of 1×PBS and 100 μL solution of primary antibody plus europium-labelled secondary antibody [Anti Phospho-MEK (Ser217/221), Cell Signaling, #9121 and Eu-N1 labeled goat-anti-rabbit antibody, Perkin Elmer, # AD0105], the primary antibody is diluted 1:2000 and the secondary antibody is diluted to 0.4-0.5 μg/mL in Delfia Assay Buffer (Perkin Elmer, #1244-111). After 1 h shaking at RT the solution is poured away and washed five times with 200 μL Delfia Wash Buffer (Perkin Elmer, #4010-0010/#1244-114). After the addition of 200 μL Enhancement Solution (Perkin Elmer, #4001-0010/#1244-105) the mixture is shaken for 10 min at RT and then measured in a Wallac Victor using the program “Delfia Time Resolved Fluorescence (Europium)”. IC50 values are obtained from these dosage-activity curves using a software program (GraphPadPrizm).
# Sequence of B-Raf (V600E)-kinase (P15056 whole entry V600E): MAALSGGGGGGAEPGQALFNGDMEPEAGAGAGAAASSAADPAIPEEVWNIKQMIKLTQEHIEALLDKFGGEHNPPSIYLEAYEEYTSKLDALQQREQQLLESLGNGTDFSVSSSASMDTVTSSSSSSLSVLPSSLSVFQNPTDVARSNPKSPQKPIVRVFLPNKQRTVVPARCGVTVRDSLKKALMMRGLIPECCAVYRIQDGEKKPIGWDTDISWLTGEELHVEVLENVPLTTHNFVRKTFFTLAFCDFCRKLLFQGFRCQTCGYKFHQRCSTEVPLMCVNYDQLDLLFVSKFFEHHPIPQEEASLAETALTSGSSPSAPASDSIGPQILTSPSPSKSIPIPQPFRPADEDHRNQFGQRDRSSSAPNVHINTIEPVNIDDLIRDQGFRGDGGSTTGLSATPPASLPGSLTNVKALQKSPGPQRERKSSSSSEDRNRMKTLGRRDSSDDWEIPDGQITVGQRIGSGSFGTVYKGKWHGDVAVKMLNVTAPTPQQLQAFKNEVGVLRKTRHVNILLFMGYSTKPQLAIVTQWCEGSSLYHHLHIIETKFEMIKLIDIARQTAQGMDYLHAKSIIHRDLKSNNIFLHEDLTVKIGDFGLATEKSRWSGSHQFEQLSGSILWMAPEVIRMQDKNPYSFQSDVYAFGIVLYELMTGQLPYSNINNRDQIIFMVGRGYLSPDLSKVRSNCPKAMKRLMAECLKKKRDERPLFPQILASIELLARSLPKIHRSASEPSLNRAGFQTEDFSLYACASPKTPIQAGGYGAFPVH
row,SMILES,IC50 [nM]
1,CC(C)(C)c1cc(NC(=O)c2ccc(Cl)c(Nc3ncnc4cnc(N5CCCCC5)nc34)c2)no1 [III-73],4
2,Cc1cc(C(=O)Nc2cc(C(C)(C)C)nn2C)cc(Nc2ncnc3cnc(N4CCOCC4)nc23)c1C [III-372],5
3,CN1CCC(CN2CCN(c3nc(N)c4ncnc(Nc5cc(C(=O)Nc6cccc(C(F)(F)F)c6)ccc5Br)c4n3)CC2)CC1 [I-29],15
4,COc1ccc(NC(=O)c2ccc(C(F)(F)F)c(Nc3ncnc4cnc(N5CCCCC5)nc34)c2)cc1C(F)(F)F [III-48],> 1000
5,Cc1ccc(C(=O)Nc2cc(C(C)(C)C)nn2C)cc1Nc1ncnc2cnc(NC3CCOC3)nc12 (stereo not drawn) [III-348],< 1
6,Cc1ccc(C(=O)Nc2cccc(C(C)(C)C)c2)cc1Nc1ncnc2cnc(N3CCOCC3)nc12 [III-294],1
7,Cc1ccc(C(=O)Nc2cccc(C(F)(F)F)c2)cc1Nc1ncnc2c(N)nc(N3C[C@H]4C[C@@H]3CN4C)nc12 [I-65],< 1
8,Cc1ccc(C(=O)NCc2cccc(C(F)(F)F)c2)cc1Nc1ncnc2cnc(N3CCOCC3)nc12 [III-324],55
9,Cc1ccc(C(=O)NCc2ccc(C(C)(C)C)cc2)cc1Nc1ncnc2cnc(N3CCCCC3)nc12 [III-245],460
10,Cc1ccc(C(=O)NCc2ccc(C(F)(F)F)cc2)cc1Nc1ncnc2cnc(N(C)CCN(C)C)nc12 [III-236],1120
11,Cc1ccc(C(=O)Nc2cccc(C(F)(F)F)c2)cc1Nc1ncnc2cnc(N3CCCN(C)CC3)nc12 [III-217],2
12,Cc1ccc(C(=O)Nc2ccc(Cl)c(C(F)(F)F)c2)cc1Nc1ncnc2cnc(N3CCOCC3)nc12 [III-337],2
13,Cc1ccc(C(=O)Nc2ccccc2)cc1Nc1ncnc2cnc(N3CCCC3)nc12 [III-259],505
14,COc1ccc(C(=O)Nc2cc(C(C)(C)C)on2)cc1Nc1ncnc2cnc(N3CCCC3)nc12 [III-82],20
15,Cc1ccc(C(=O)Nc2ccc(C(F)(F)F)cc2)cc1Nc1ncnc2c(N)nc(N3CCNCC3)nc12 [I-4],7
16,Cc1ccc(C(=O)NCc2ccc(C(C)(C)C)cc2)cc1Nc1ncnc2cnc(N3CCOCC3)nc12 [III-302],115
17,COc1ccc(NC(=O)c2ccc(C)c(Nc3ncnc4c(N)nc(N5CCCN(C)CC5)nc34)c2)cc1C(F)(F)F [I-17],1
18,Cc1ccc(C(=O)NCc2cccc(C(C)(C)C)c2)cc1Nc1ncnc2cnc(N3CCCN(C)CC3)nc12 [III-336],140

row,SMILES,IC50 [nM]
1,Cc1ccc(C(=O)Nc2cccc(C(C)(C)C#N)c2)cc1Nc1ncnc2cnc(N3CCN(C)CC3)nc12 [III-305],2
2,Cc1ccc(C(=O)Nc2cc(C(C)(C)C)on2)cc1Nc1ncnc2cnc(N3C[C@@H](C)O[C@@H](C)C3)nc12 [III-368],14
3,Cc1ccc(C(=O)NCc2ccc(C(F)(F)F)cc2)cc1Nc1ncnc2cnc(N3CCCN(C)CC3)nc12 [III-221],171
4,COc1ccc(C(=O)Nc2cc(C(C)(C)C)on2)cc1Nc1ncnc2cnc(N3CCOCC3)nc12 [III-81],2
5,COc1c(NC(=O)c2ccc(C)c(Nc3ncnc4cnc(N(C)CCN(C)C)nc34)c2)cc(C(C)(C)C)cc1NS(C)(=O)=O [III-199],23
6,Cc1ccc(C(=O)Nc2cc(C(C)(C)C)on2)cc1Nc1ncnc2cnc(N3CC(F)(F)C3)nc12 [III-366],6
7,COc1ccc(NC(=O)c2ccc(C(F)(F)F)c(Nc3ncnc4cnc(N5CCCN(C)CC5)nc34)c2)cc1C(F)(F)F [III-45],283
8,COc1ccc(NC(=O)c2ccc(C)c(Nc3ncnc4c(N)nc(N5CCN(C6CCN(C)CC6)CC5)nc34)c2)cc1C(F)(F)F [I-15],1
9,COc1ccc(C(F)(F)F)cc1NC(=O)c1ccc(C)c(Nc2ncnc3cnc(N4CCCC4)nc23)c1 [III-268],120
10,COc1ccc(NC(=O)c2ccc(F)c(Nc3ncnc4cnc(N5CCCCCC5)nc34)c2)cc1C(F)(F)F [III-32],1
11,COc1ccc(NC(=O)c2ccc(C(F)(F)F)c(Nc3ncnc4cnc(N5CCOCC5)nc34)c2)cc1C(F)(F)F [III-50],5
12,COc1ccc(C(C)(C)C)cc1NC(=O)c1ccc(C)c(Nc2ncnc3cnc(N4CCNCC4)nc23)c1 [III-343],2
13,Cc1ccc(NC(=O)c2cccc(C(F)(F)F)c2)cc1Nc1ncnc2c(N)nc(N3CCN(C4CCCC4)CC3)nc12 [II-9],24
14,Cc1ccc(C(=O)Nc2nnc(C(F)(F)F)s2)cc1Nc1ncnc2cnc(N3CCNCC3)nc12 [III-342],2120
15,COc1ccc(NC(=O)c2ccc(Cl)c(Nc3ncnc4cnc(N5CCN(C)CC5)nc34)c2)cc1C(F)(F)F [III-9],7
16,Cc1ccc(C(=O)Nc2cc(OCCN(C)C)cc(C(F)(F)F)c2)cc1Nc1ncnc2cnc(NC3CC3)nc12 [III-152],< 1
17,Cc1ccc(C(=O)NC2CC2)cc1Nc1ncnc2cnc(N3CC[C@@H](F)C3)nc12 [III-210],> 2000

# Other lines, results leading:
row,IC50 [nM],SMILES
1,7,Cc1ccc(C(=O)Nc2cccc(C(C)(C)C#N)c2)cc1Nc1ncnc2cnc(NCc3ccccc3)nc12 [III-430]
2,3,Cc1ccc(C(=O)Nc2cc(C(C)(C)C)on2)cc1Nc1ncnc2cnc(N3CCN4CCCC4C3)nc12 (stereo not drawn) [III-484]
3,5,CCN1CCN(c2ncc3ncnc(Nc4cc(C(=O)Nc5ccc(OC)c(C(F)(F)F)c5)ccc4F)c3n2)CC1 [III-405]
4,1,Cc1ccc(C(=O)Nc2ccc3c(c2)OC(F)(F)C(F)(F)O3)cc1Nc1ncnc2cnc(N3CCN(CCN(C)C)CC3)nc12 [III-607]
5,17,COc1ccc(NC(=O)c2ccc(C)c(Nc3ncnc4cnc(N5CCN(CCN6CCOCC6)CC5)nc34)c2)cc1C(F)(F)F [III-552]
6,2,Cc1ccc(C(=O)Nc2cc(CN3CCCC3)cc(C(F)(F)F)c2)cc1Nc1ncnc2cnc(N3CC[C@H](F)C3)nc12 [III-459]
7,< 1,CNc1ncnc2c(Nc3cc(NC(=O)c4cccc(C(C)(C)C#N)c4)ccc3C)ncnc12 [VIII-1]
8,2,Cc1ccc(C(=O)Nc2cc(C(C)(C)C)on2)cc1Nc1ncnc2cncnc12 [V-1]
9,3,COc1ccc(C(C)(C)C)cc1NC(=O)c1ccc(C)c(Nc2ncnc3cnc(N4CCN(CC5CCN(C)CC5)CC4)nc23)c1 [III-415]
10,14,COc1ccc(NC(=O)c2ccc(C)c(Nc3ncnc4cnc(N5CCC(N6C[C@@H](C)O[C@@H](C)C6)CC5)nc34)c2)cc1C(F)(F)F [III-559]
11,5,COCCN1CCN(c2ncc3ncnc(Nc4cc(C(=O)Nc5cc(C(C)(C)C)ccc5OC)ccc4C)c3n2)CC1 [III-422]
12,1,Cc1ccc(C(=O)Nc2ccnc(C(C)(C)C)c2)cc1Nc1ncnc2cnc(NC3CCN(C)CC3)nc12 [III-595]
13,2,COc1ncc2ncnc(Nc3cc(C(=O)Nc4cc(C(C)(C)C)on4)ccc3C)c2n1 [III-577]
14,12,COCCN1CCN(c2ncc3ncnc(Nc4cc(C(=O)Nc5cc(C(F)(F)F)ccc5-n5ccnn5)ccc4C)c3n2)CC1 [III-537]
15,1,Cc1ccc(C(=O)Nc2cc(N(C)CCN(C)C)cc(C(F)(F)F)c2)cc1Nc1ncnc2cnc(N3CCOCC3)nc12 [III-442]
16,28,Cc1ccc(C(=O)Nc2cc(C(C)(C)C)on2)cc1N(C)c1ncnc2cnc(N3CCOCC3)nc12 [III-580]
17,2,Cn1nc(C(C)(C)C)cc1NC(=O)c1ccc(F)c(Nc2ncnc3cnc(NC4CCOC4)nc23)c1 (stereo not drawn) [III-387]
18,< 1,Cc1ccc(C(=O)Nc2cc(C(C)(C)C)on2)cc1Nc1ncnc2cnc(N3CCOCC3)nc12 [III-516]
19,4,COCCN1CCN(c2ncc3ncnc(Nc4cc(C(=O)Nc5cc(C(C)(C)C)on5)ccc4F)c3n2)CC1 [III-395]
20,7,Cn1nc(C(C)(C)C)cc1NC(=O)c1cc(Cl)cc(Nc2ncnc3cnc(N4CCOCC4)nc23)c1 [III-376]
21,2000,Cc1ccc(NS(=O)(=O)CCC(F)(F)F)cc1Nc1ncnc2cnc(N3CCN(C)CC3)nc12 [IV-59]
22,3,Cc1ccc(C(=O)Nc2cc(C(C)(C)C)n[nH]2)cc1Nc1ncnc2cnc(N3CC[C@H](F)C3)nc12 [III-508]
23,7,Cc1ccc(C(=O)Nc2cc(C(C)(C)C)nn2C)cc1Nc1ncnc2cnc(N3CCN(CC4CCN(C)CC4)CC3)nc12 [III-414]
24,1,CC(C)(C#N)c1cccc(NC(=O)c2ccc(F)c(Nc3ncnc4cnc(NC5CCOC5)nc34)c2)c1 (stereo not drawn) [III-386]
25,18,COc1ccc(NC(=O)c2ccc(C)c(N(C)c3ncnc4cnc(N5CCOCC5)nc34)c2)cc1C(F)(F)F [III-584]
